{
  "source": "paper PMC11666850",
  "about": "“Development and evaluation of deuterated [^18F]JHU94620 isotopologues for the non-invasive assessment of the cannabinoid type 2 receptor in brain” (EJNMMI Radiopharmacy and Chemistry, 2024)",
  "key": {"in vivo": {"assay": "in vivo", "details": "male, Wistar, rat, iv", "method": "Female adult CD-1 mice (25–42 g body weight) were used for radiometabolite analysis of [^18F]JHU94620-d4 (n = 2, 33 and 34 MBq) and [^18F]JHU94620-d8 (n = 3, 26–33 MBq) at 30 min after intravenous tail vein injection of the radiotracer to allow for the comparison of radiometabolite analysis of [^18F]JHU94620 (Moldovan et al. [2016]). The mice were immobilized by short isoflurane narcosis for the injection of the radiotracer in a restrainer and awakened mice were kept in an isolated cage until euthanisation by cervical dislocation under isoflurane narcosis. Male Wistar rats (n = 12, 613–794 g) were used for radiometabolite analysis of [^18F]JHU94620-d8 at different time points (5, 15, 30 and 60 min p.i.) after intravenous tail vein injection of the radiotracer (37–74 MBq) for the correction of the input function in pharmacokinetic analysis. Rats were kept under isoflurane narcosis (gas mixture: 2.5% isoflurane and O2) on a warmed plate until euthanization by decapitation of deep narcotized animals. Plasma samples were obtained by centrifugation with 5500 g of blood samples for 2 min at 4 °C. Resected tissues brain and spleen were kept on ice and minced for 3 × 20 s with adding 0.5 to 1 mL of 0.9% NaCl using a Precellys lysing kit and Minilys homogenizer (Bertin Technologies SAS, Montigny-le-Bretonneux, France).\nThe samples were further processed for subsequent radio-chromatographic analyses. Two consecutive extractions were performed in duplicates for plasma and brain determinations. Plasma, brain and spleen samples were added to the four time the volume of an ice-cold MeOH/H2O mixture (9:1, v/v). […] The activities of supernatants and precipitates were measured in a γ-counter (1480 WIZARD, Perkin Elmer), and the extraction efficiencies were calculated as the ratio of radioactivity in the supernatant to the radioactivity in the original sample (supernatant + precipitate). The supernatants from both extractions were combined, concentrated at 70 °C under argon stream up to a remaining volume of 100 µL, and subsequently analysed by analytical radio-HPLC (method A or B)."}, "[1]": {"type": "in vitro ADME", "details": "Wistar, rat", "method": "From the wildtype rats used for in vivo metabolism studies a hematocrit content of 0.56 ± 0.04 (n = 11) was determined by a 5 min centrifugation of 50 µl blood in a hematocrit centrifuge at 500 g. The free plasma fraction (fp) of [^18F]JHU94620-d8 was determined gravimetrically by ultrafiltration of 100 µl rat plasma samples incubated for 5, 15, 30 and 60 min at 37 °C for 20 min at 14,000 g utilizing Nanosep® centrifugal filters (10 kDa, Pall Laboratory, USA). The brain PET images were co-registered to the PMOD integrated Px Rat (W. Schiffer) T2 MR template and the brain stem, cerebellum, left cortex and left midbrain region from the corresponding brain atlas were used for the determination of the regional TACs. Due to high spillover signals from the hCB2R(D80N) expressing region not all provided atlas regions could be evaluated. Subsequently, the total tissue distribution (VT) was estimated by 2-tissue compartment modelling. For correction of the TACs, an averaged image-derived input function (pIDIF, plasma-to-whole blood ratio corrected), determined in biodistribution studies and the parent fraction derived from metabolism studies in Wistar rats (Watabe fit) and pIDIF (3-exponential fit) were integrated into the modelling process. The binding potential was estimated by a simplified reference tissue modelling (SRTM) using the cerebellar region as reference. […]"}, "hCB2R(D80N)": {"biological_target": "hCB2R(D80N) (Homo sapiens, UniProt P34972, D80N)", "sequence (P34972 whole entry D80N)": "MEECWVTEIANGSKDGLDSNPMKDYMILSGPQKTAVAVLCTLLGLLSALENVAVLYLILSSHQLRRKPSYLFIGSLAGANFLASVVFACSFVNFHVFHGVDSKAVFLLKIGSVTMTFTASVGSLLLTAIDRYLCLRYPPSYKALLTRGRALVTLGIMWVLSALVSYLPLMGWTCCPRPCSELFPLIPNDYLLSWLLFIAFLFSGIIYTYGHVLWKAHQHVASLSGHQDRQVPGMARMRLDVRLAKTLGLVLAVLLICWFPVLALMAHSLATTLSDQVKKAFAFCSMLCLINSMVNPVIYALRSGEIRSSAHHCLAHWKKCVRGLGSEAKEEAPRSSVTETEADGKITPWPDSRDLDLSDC"}, "[2]": {"details": "female, Wistar, rat, in vivo, 60 min"}},
  "note": "Like-named read-outs stand apart in the source and are kept apart here.",
  "data": [
    {"smiles": "[2H]C([2H])([18F])C([2H])([2H])C([2H])([2H])C([2H])([2H])n1c(C)c(C)s/c1=N\\C(=O)C1C(C)(C)C1(C)C", "note": "[[^18F]JHU94620-d8]", "values": [
      {"measurement": "half-life", "setting": "in vivo; metabolic half-life (t1/2) in brain", "result": 53.8, "unit": "min"},
      {"measurement": "half-life", "setting": "in vivo; metabolic half-life (t1/2) in plasma", "result": 7.6, "unit": "min"},
      {"measurement": "half-life", "setting": "in vivo; metabolic half-life (t1/2) in spleen", "result": 37.3, "unit": "min"},
      {"measurement": "free plasma fraction (fp)", "setting": "[1]", "result": "0.3 ± 0.1"},
      {"measurement": "BPND in the hCB2R(D80N) region", "setting": "hCB2R(D80N); SRTM, cerebellar region as reference", "result": 26},
      {"measurement": "reduction of AUC20-60min when normalized to the cerebellum", "setting": "hCB2R(D80N); after injection of GW405833, compared to the control group", "result": 61, "unit": "%"},
      {"measurement": "TAC peak, potential reference regions (contralateral and cerebellum)", "setting": "hCB2R(D80N); female, Wistar, rat, in vivo", "result": "about 3 SUVmean"},
      {"measurement": "VT in the brain region bearing the hCB2R(D80N) overexpression", "setting": "hCB2R(D80N); female, Wistar, rat, in vivo", "result": "320 ± 135", "unit": "mL ccm^−1"},
      {"measurement": "VT in the other investigated brain regions", "setting": "hCB2R(D80N); female, Wistar, rat, in vivo", "result": "5.9-13.8 mL ccm^−1"},
      {"measurement": "SUVmean in the cerebellar region at 60 min p.i.", "setting": "hCB2R(D80N); [2]", "result": "0.16 ± 0.03", "unit": "SUVmean"},
      {"measurement": "SUVmean in the contralateral region at 60 min p.i.", "setting": "hCB2R(D80N); [2]", "result": "0.8 ± 0.3", "unit": "SUVmean"},
      {"measurement": "AUC20-60min (CI95%), hCB2R D80N-to-Cerebellum", "setting": "hCB2R(D80N); human, in vivo", "result": "1128 (1058 to 1198) SUVr ∙ min"},
      {"measurement": "AUC20-60min (CI95%), hCB2R D80N-to-Contralateral", "setting": "hCB2R(D80N); human, in vivo", "result": "291 (226 to 355) SUVr ∙ min"},
      {"measurement": "AUC, Cerebellum", "setting": "hCB2R(D80N); human, in vivo", "result": "30 ± 4", "unit": "SUV ∙ min"},
      {"measurement": "AUC, Contralateral", "setting": "hCB2R(D80N); human, in vivo", "result": "74 ± 16", "unit": "SUV ∙ min"},
      {"measurement": "AUC, hCB2R(D80N)", "setting": "hCB2R(D80N); human, in vivo", "result": "412 ± 90", "unit": "SUV ∙ min"},
      {"measurement": "AUC20-60min (CI95%), hCB2R D80N-to-Cerebellum", "setting": "hCB2R(D80N); human, in vivo, iv, 5 mg/kg", "result": "435 (367 to 502) SUVr ∙ min"},
      {"measurement": "AUC20-60min (CI95%), hCB2R D80N-to-Contralateral", "setting": "hCB2R(D80N); human, in vivo, iv, 5 mg/kg", "result": "272 (233 to 311) SUVr ∙ min"}
    ]}
  ]
}
